Measurements reported in PMC8228600, “Design, Synthesis, In Vitro and In Vivo Evaluation of Heterobivalent SiFAlin-Modified Peptidic Radioligands Targeting Both Integrin αvβ3 and the MC1 Receptor—Suitable for the Specific Visualization of Melanomas?” (Pharmaceuticals, 2021).

Experiments:
[1] = logD(7.4) determination (n-octanol / phosphate buffer distribution); format: physicochemical; conditions: n-octanol / 0.05 M phosphate buffer pH 7.4; mean ± SD
Method: Since high lipophilicity of peptidic radiotracers can lead to a high plasma protein binding, resulting in unspecific organ and high liver uptakes, thus negatively impact tumor visualization, the lipophilicity of the HBPLs was determined to get an approximate estimation of the in vivo biodistribution behavior of the radioligands. Therefore, the logD(7.4) values of the SiFAlin-modified HBPLs [^18F]1–[^18F]6 were determined via their distribution coefficient between n-octanol and phosphate buffer at pH 7.4.
The radiotracer solutions were first diluted with 0.9% NaCl solution to give a final EtOH concentration of <10%. A total of 5 MBq of the respective radiotracer in solution was added to 1.6 mL of a mixture of n-octanol and 0.05 M phosphate buffer (pH = 7.4) (v/v, 1/1), and the solution was vigorously shaken for 5 min. Subsequently, the phases were separated by centrifugation at 13.4 rpm for 2 min, and 100 μL of organic and aqueous phases were collected. The activity of each sample was measured using a gamma counter. The lipophilicity of each compound was determined in triplicate in three independent experiments.

[2] = Stability of radiotracers in human serum (radio-HPLC); format: in vitro ADME; conditions: 37 °C, 120 min, mean ± SD, read-out: Stability: intact radiotracer after 120 min of incubation in human serum
Method: In addition to the investigation of the radiotracers’ lipophilicity, their stability in human serum was evaluated in order to determine possible stability issues of the newly developed agents. For this purpose, the respective ^18F-labeled HBPLs were incubated in human serum at 37 °C for 120 min. The results of these experiments are summarized in Table 1, and the corresponding radio-HPLC chromatograms for [^18F]2 as representative examples for all compounds studied are depicted in Figure 3A (see Supplementary Materials, Figure S91 for the results obtained for the other radioligands). In Figure 3B, the portions of intact radiotracer over the course of the stability experiments are depicted.
The radiotracer solutions were first diluted with 0.9% NaCl solution to give a final EtOH concentration of <10%. Then, 6 × 25 μL radiotracer solution was added to 6 × 100 μL human serum and incubated at 37°C for 120 min. At defined time points (5, 15, 30, 60, 90 and 120 min), 125 μL EtOH was added to one of the mixtures and the precipitation of serum proteins was supported by ice-cooling for 2 min. After centrifugation at 13.4 rpm for 2 min, the supernatant was analyzed by analytical radio-HPLC (0–100% MeCN + 0.1% TFA in 5 min). The experiment was performed for each compound trice by three independent experiments.

Compound | logD [1] | remaining at 2 h [2]
CCCC[C@H](NC(=O)CNC(=O)CNC(=O)[C@H](CCC(=O)O)NC(=O)CNC(=O)[C@H](CCC(=O)O)NC(=O)CNC(=O)[C@H](CCC(=O)O)NC(=O)C(=O)NCCCN(CCCNC(=O)C(=O)N[C@@H](CCC(=O)O)C(=O)NCC(=O)N[C@@H](CCC(=O)O)C(=O)NCC(=O)N[C@@H](CCC(=O)O)C(=O)NCCCC[C@@H]1NC(=O)[C@@H](Cc2ccccc2)NC(=O)[C@H](CC(=O)O)NC(=O)CNC(=O)[C@H](CCCNC(=N)N)NC1=O)CC(=O)N[C@@H](CCCCNC(=O)CCC[N+](C)(C)Cc1ccc([Si](F)(C(C)(C)C)C(C)(C)C)cc1)C(N)=O)C(=O)N[C@H]1CC(=O)NCCCC[C@@H](C(N)=O)NC(=O)[C@H](Cc2c[nH]c3ccccc23)NC(=O)[C@H](CCCNC(=N)N)NC(=O)[C@@H](Cc2ccccc2)NC(=O)[C@H](Cc2c[nH]cn2)NC1=O [[^18F]6] | -1.52 ± 0.01 | 82.7 ± 1.8%
CCCC[C@H](NC(=O)CNC(=O)CNC(=O)CCOCCOCCOCCOCCOCCOCCC(=O)NCCCN(CCCNC(=O)CCOCCOCCOCCOCCOCCOCCC(=O)NCCCC[C@@H]1NC(=O)[C@@H](Cc2ccccc2)NC(=O)[C@H](CC(=O)O)NC(=O)CNC(=O)[C@H](CCCNC(=N)N)NC1=O)CC(=O)N[C@@H](CCCCNC(=O)CCC[N+](C)(C)Cc1ccc([Si](F)(C(C)(C)C)C(C)(C)C)cc1)C(N)=O)C(=O)N[C@H]1CC(=O)NCCCC[C@@H](C(N)=O)NC(=O)[C@H](Cc2c[nH]c3ccccc23)NC(=O)[C@H](CCCNC(=N)N)NC(=O)[C@@H](Cc2ccccc2)NC(=O)[C@H](Cc2c[nH]cn2)NC1=O [[^18F]3] | -1.15 ± 0.01 | 81.4 ± 2.9%
CCCC[C@H](NC(=O)CNC(=O)CNC(=O)COCC(=O)NCCCN(CCCNC(=O)COCC(=O)NCCCC[C@@H]1NC(=O)[C@@H](Cc2ccccc2)NC(=O)[C@H](CC(=O)O)NC(=O)CNC(=O)[C@H](CCCNC(=N)N)NC1=O)CC(=O)N[C@@H](CCCCNC(=O)CCC[N+](C)(C)Cc1ccc([Si](F)(C(C)(C)C)C(C)(C)C)cc1)C(N)=O)C(=O)N[C@H]1CC(=O)NCCCC[C@@H](C(N)=O)NC(=O)[C@H](Cc2c[nH]c3ccccc23)NC(=O)[C@H](CCCNC(=N)N)NC(=O)[C@@H](Cc2ccccc2)NC(=O)[C@H](Cc2c[nH]cn2)NC1=O [[^18F]5] | -1.21 ± 0.01 | 83.2 ± 2.4%
CCCC[C@H](NC(=O)CNC(=O)CNC(=O)CCOCCOCCC(=O)NCCCN(CCCNC(=O)CCOCCOCCC(=O)NCCCC[C@@H]1NC(=O)[C@@H](Cc2ccccc2)NC(=O)[C@H](CC(=O)O)NC(=O)CNC(=O)[C@H](CCCNC(=N)N)NC1=O)CC(=O)N[C@@H](CCCCNC(=O)CCC[N+](C)(C)Cc1ccc([Si](F)(C(C)(C)C)C(C)(C)C)cc1)C(N)=O)C(=O)N[C@H]1CC(=O)NCCCC[C@@H](C(N)=O)NC(=O)[C@H](Cc2c[nH]c3ccccc23)NC(=O)[C@H](CCCNC(=N)N)NC(=O)[C@@H](Cc2ccccc2)NC(=O)[C@H](Cc2c[nH]cn2)NC1=O [[^18F]1] | -1.08 ± 0.07 | 87 ± 2.3%
